We go through three compounds from article PMC8546428, “Convergent olfactory trace amine-associated receptors detect biogenic polyamines with distinct motifs via a conserved binding site” (The Journal of Biological Chemistry, 2021).

In one experiment the target is T1, sTAAR365 Y6.51F (Petromyzon marinus, UniProt A0A678XMK4, Y272F).
T1 sequence (A0A678XMK4 1-365 Y272F): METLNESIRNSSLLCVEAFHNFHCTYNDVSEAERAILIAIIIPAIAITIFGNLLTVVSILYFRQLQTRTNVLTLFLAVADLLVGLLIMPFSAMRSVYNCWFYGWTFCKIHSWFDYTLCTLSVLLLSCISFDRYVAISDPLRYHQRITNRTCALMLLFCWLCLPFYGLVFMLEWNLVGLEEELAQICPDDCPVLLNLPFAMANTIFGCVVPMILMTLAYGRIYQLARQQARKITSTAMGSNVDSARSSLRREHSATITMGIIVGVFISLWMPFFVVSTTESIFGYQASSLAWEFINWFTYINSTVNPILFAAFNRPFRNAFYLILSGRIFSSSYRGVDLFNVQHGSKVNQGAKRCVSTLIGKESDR
The experiment is described as follows: cell-based.

The next experiment addresses T2, sTAAR365 E7.36D (Petromyzon marinus, UniProt A0A678XMK4, E292D).
T2 sequence (A0A678XMK4 1-365 E292D): T1 sequence (A0A678XMK4 1-365 Y272F) with F272Y, E292D
The experiment is described as follows: cell-based.

For a further experiment, the target named is T3, sTAAR365 E7.36A (Petromyzon marinus, UniProt A0A678XMK4, E292A).
T3 sequence (A0A678XMK4 1-365 E292A): T1 sequence (A0A678XMK4 1-365 Y272F) with F272Y, E292A
In words: cell-based.

A further experiment concerns the target T4, Rat TAAR9 (Rattus norvegicus, UniProt Q923Y6).
T4 construct: expressed in transfected cells; host or cells: Hana3A (HEK293-derived)
T4 sequence (Q923Y6 1-338): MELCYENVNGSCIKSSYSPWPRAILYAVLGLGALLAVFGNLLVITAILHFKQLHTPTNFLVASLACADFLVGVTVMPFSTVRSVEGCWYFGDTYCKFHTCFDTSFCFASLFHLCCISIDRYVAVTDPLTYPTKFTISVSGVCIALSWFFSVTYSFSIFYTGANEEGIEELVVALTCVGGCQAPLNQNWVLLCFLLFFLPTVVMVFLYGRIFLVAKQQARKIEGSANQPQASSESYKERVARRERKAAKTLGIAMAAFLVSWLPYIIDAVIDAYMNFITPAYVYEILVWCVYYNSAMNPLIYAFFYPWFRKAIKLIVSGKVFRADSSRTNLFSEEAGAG
In words: CRE-luciferase reporter assay in Hana3A. Format: cell-based. The conditions noted are these: rat TAAR9, ligand 1 mM, Fig. 1B. The procedure:
We examined the response of TAAR9s from rat, human, hamster, and rabbit to the stimulation of 1 mM amines using a well-established cAMP response element (CRE)-driven luciferase reporter assay based on Golf-mediated cAMP signal transduction ([5], [24]). In addition to the four mTAAR9 ligands, we included putrescine, which is also a polyamine and precursor of spermine/spermidine biosynthesis.
Mammalian TAAR9 plasmids were transfected into Hana3A cells along with a cAMP-dependent luciferase reporter plasmid (CRE-Luc). Transfected cells were incubated with tested ligands, and luciferase activity was quantified with a […] substrate as a reporter for Golf-mediated TAAR activation. Luciferase activity was indicated by the luminescence value and normalized as a fold-increase over the response to the vehicle stimuli (mean ± S.D., n = 3). […] B, Hana3A cells expressing mouse, rat, human, cat, hamster, and rabbit TAAR9 were incubated with either vehicle or tested ligands (1 mM) and assayed for reporter activity. C, concentration-dependent luciferase activity in Hana3A cells expressing mouse, rat, and cat TAAR9 receptors stimulated with cadaverine, spermidine, and spermine.
The firefly luciferase and renilla luciferase activity was measured with a BioTek microplate reader following manufacturer’s instructions.
For orientation: Reporter assays use an easily measured gene product as a stand-in for the process of interest.

For a further experiment, the target named is T5, WT sTAAR365 (Petromyzon marinus, UniProt A0A678XMK4).
T5 sequence (A0A678XMK4 1-365): T1 sequence (A0A678XMK4 1-365 Y272F) with F272Y
The experiment is described as follows: cAMP TR-FRET assay, wild-type sTAAR365 in HEK293T. Format: cell-based, sea lamprey. Particulars: for activation of sTAAR365 (cAMP accumulation): ligand 1 mM, HEK293T, Fig. 2A. The procedure:
HEK293T cells were transfected with sea lamprey sTAAR365 for 24 h and assayed for Golf-mediated cAMP production with a TR-FRET assay at 30 min after ligand addition. Receptor activity was normalized to the cAMP level in buffer-treated cells (mean ± S.D., n = 3). A, HEK293T cells expressing sTAAR365 or mock plasmid were incubated with either vehicle or tested ligands (1 mM). […] B, concentration-dependent cAMP production of HEK293T cells expressing sTAAR365 stimulated with cadaverine, putrescine, and spermine.

Structures are written as SMILES. Where a chain is given by its changes, count along the chain named.

A word on the EC50: it is the concentration giving half of the maximal effect.

In the case of `NCCCCCN` [cadaverine], the EC50 on sTAAR365 Y6.51F was determined as 1.7 ± 0.9 µM; on sTAAR365 E7.36D, 0.007 ± 0.002 µM; at sTAAR365 E7.36A, 0.05 ± 0.02 µM; on WT sTAAR365 it was 0.004 µM. Besides, at Rat TAAR9, the “reporter activity (activation of TAAR9)” value is listed as “maximum responses”. For the same compound, on WT sTAAR365 (WT sTAAR365), the “difference in potency, cadaverine vs putrescine” value came out at 1000 fold. Further, the response threshold on WT sTAAR365 (WT sTAAR365, cAMP production) is on record as about 100 pM. In addition, on WT sTAAR365, the “activation of sTAAR365 (cAMP accumulation)” value (from here on “activation of sTAAR365”) was “activated”.
On to `NCCCCN` [putrescine], for which the EC50 at sTAAR365 Y6.51F was over 500 µM; at sTAAR365 E7.36D, 72 ± 14 µM; at sTAAR365 E7.36A, 420 ± 87 µM; on WT sTAAR365, 56 µM. At Rat TAAR9, the “reporter activity (activation of TAAR9)” value is recorded as “not activated”. The “activation of sTAAR365” value at WT sTAAR365 is “activated”.
Turning to `NCCCNCCCCNCCCN` [spermine], the EC50 was 114 ± 20 µM at sTAAR365 Y6.51F, over 500 µM on sTAAR365 E7.36D, over 500 µM on sTAAR365 E7.36A and 28 µM on WT sTAAR365. For the same compound, on Rat TAAR9, the “reporter activity (activation of TAAR9)” value is reported as “maximum responses”. At WT sTAAR365 (WT sTAAR365, cAMP production), the “maximal response (Emax) relative to cadaverine/putrescine” value is “one-third”. Further, the “activation of sTAAR365” value on WT sTAAR365 is given as “activated”.
